The text below walks through data of US9782452B2, “Methods for stimulating hematopoietic recovery by inhibiting TGFβ signaling” (Cornell University, priority 2011, dated 2017).

Entries after “also recorded” stand apart in the source; their conditions may differ.

Common to all, as to format: in vivo, mouse
In one assay the test system is C57BL/6J mice. The experiment in a line: Blood count recovery after myelosuppressive 5FU chemotherapy. As for the experimental part: The inventors used 5FU (250 mg/kg, 1 i.p.) for C57BL/6J mice, or 5FU 150 mg/kg (1 i.p.) for mice that had been previously transplanted. To assess blood count recovery, the inventors collected peripheral blood (50 μl) into EDTA-coated capillary tubes (Fisher Scientific). Differential blood counts were measured using an automated Bayer ADVIA 120 Multispecies Hematology Analyzer calibrated for murine blood (Bayer HealthCare).
The inventors treated cohorts of mice with 5FU (250 mg/kg) on day 0 and then with either the TGFβ-neutralizing antibody 1D11 (I) (10 mg/kg) or a non-targeted control antibody 13C4 (C) (10 mg/kg) on days 5, 7 and 9. The 1D11 and 13C4 antibodies were generously provided by Genzyme Corp., Framingham, Mass., USA. Mice were treated with 5FU (250 mg/kg) on day 0 and then received either LY364947 (1 mg/kg, i.p.) or an equal volume of PBS six times over a period of 9 days. Hematopoietic reconstitution was followed by monitoring peripheral blood counts and multidimensional flow cytometry on bone marrow and spleen cells, as indicated.

The subject of another assay is LKS+ HSPCs. The experiment in a line: Multidimensional flow cytometry of BM HSPC regeneration after 5FU. The conditions noted are these: 1 mg/kg IP 6 times over 9 days, vs control. On the procedure: (§1) Mice were killed by CO2 asphyxiation and femur, tibia and humeri were dissected free of muscle and tendons and then crushed in DMEM using a mortar and pestle. The resulting cell suspension was filtered through a 70-μm filter and washed in PEB (2 mM EDTA, 0.2% BSA in PBS pH 7.4). Spleens were isolated and then minced prior to grinding through a 70-μm filter to generate single cell suspensions. Lineage negative (Lin^−) cells were purified using a biotinylated lineage cell detection cocktail (Miltenyi Biotec). Lineage depleted cells were then stained with streptavidin-Qdot 605 (eBioscience), Horizon V450-conjugated anti-CD117 (BD Biosciences), PECy7-conjugated Sca-1 (BioLegend), Alexa700-conjugated CD34 (BD Biosciences), APC-conjugated CD135 (Flk2) (BioLegend), and PerCP/Cy5.5-conjugated CD16/32 (FcR). Hematopoietic populations were identified as following: LT-HSCs, LKS^+ CD34^−Flk2^−; ST-HSCs, LKS^+ CD34^+ Flk2^−; MPPs, LKS^+ CD34^+ Flk2^+; CMPs, LKS^− CD34^+ FcRlow; GMPs, LKS^− CD34^+ FcR^+; and MEPs, LKS^− CD34^− FcR^− MEPs. DAPI was used to exclude dead cells during flow cytometric analysis. […] The cell cycle status of LKS^+SLAM cells was analyzed using this same strategy. Analysis gates were set based upon the fluorescence minus one (FMO) fluorophore. […]
(In general: A flow cytometer gives signals particle by particle.)

For assay [1], the system named is LKS+ HSPCs and LKS+SLAM cells. The experiment in a line: Bi-dimensional cell cycle analysis of BM HSPCs after 5FU. The conditions noted are these: D15 after 5FU, 1 mg/kg IP 6 times over 9 days; vs 5FU only. As for the experimental part: as §1
Where [2] appears, read: 5FU 250 mg/kg D0, 1 mg/kg IP 6 times over 9 days, vs PBS.

`c1ccc(-c2[nH]ncc2-c2ccnc3ccccc23)nc1` [LY364947]: in the assay with C57BL/6J mice (setting [2]), the PLT recovery entry was “faster” and the WBC recovery result is reported as “faster”. The blood counts recovery result in the assay on C57BL/6J mice (after 5FU, vs vehicle control) was “recovered blood counts more rapidly”. Moreover, the “expansion of LKS+SLAM cells” value in the assay with LKS+ HSPCs was “greater expansion”. Besides, in assay [1], the “cycling of LKS+ and LKS+SLAM cells” value was “prolonged cycling; also recorded: persisted in cycle”.
